Consider five compounds from paper PMC11791976, “CDC20‐Mediated Selective Autophagy Degradation of PBRM1 Affects Immunotherapy for Renal Cell Carcinoma” (Advanced Science, 2024).

The subject of the assay is PBRM1. In words: Immunoblot of PBRM1 / CDC20 protein level in cells treated with tool compounds. Type of assay: cell-based. The note with it: for CDC20 protein level / PBRM1 protein level: cell cycle block, 24 h, Figure S1J,K. The protocol:
Figure 3 Autophagy selectively degrades PBRM1 via the autophagic receptor p62 in a CDC20‐dependent manner. A) IB analysis of WCL lysates derived from WT or CDC20 knockdown 786‐O and 769‐P cells treated with NH4Cl (20 mM, 24 h) before harvesting. B) IB analysis of WCL lysates derived from 786‐O and 769‐P cells treated with NH4Cl (20 mM) for indicated hours. C) IB analysis of WCL lysates derived from 786‐O and 769‐P cells treated with chloroquine (CQ, 50 µM) for indicated hours. D) IB analysis of WCL lysates derived from 786‐O and 769‐P cells treated with glucose starvation (G.S.) for indicated hours. E) IB analysis of WCL lysates derived from 786‐O and 769‐P cells treated with serum starvation (S.S.) for indicated hours. F) IB analysis of WCL lysates derived from wild‐type (WT) or ATG5 knockdown 786‐O and 769‐P cells treated with serum starvation (S.S.) for indicated hours before harvesting. G) IB analysis of WCL and anti‐HA immunoprecipitates derived from 293T cells transfected with HA‐p62 and V5‐PBRM1. H) IB analysis of WCL and anti‐Flag immunoprecipitates derived from 293T cells transfected with Flag‐p62 and V5‐PBRM1. I) IB analysis of WCL lysates derived from shScr or p62 knockdown 786‐O and 769‐P cells using shRNA. J) IB analysis of WCL lysates derived from NC or p62 knockdown 786‐O cells using siRNA. NC, negative control. K,L) Immunoblotting analysis (K) and quantification (L) of cell lysates of WT and p62 knockdown 786‐O cells treated with cycloheximide (CHX, 20 µg ml^−1) at indicated time points. M) IB analysis of WCL and GST‐pull‐down products derived from 293T cells transfected with GST‐p62 and V5‐PBRM1. 24 h post transfection, cells were treated with serum starvation (S.S.) for 24 h before harvesting the cells. N) IB analysis of WCL and GST‐pull‐down products derived from 293T cells transfected with GST‐p62, HA‐CDC20 and V5‐PBRM1. O) IB analysis of WCL and GST‐pull‐down products derived from WT and CDC20 knockdown 293T cells transfected with GST‐p62 and V5‐PBRM1. P) Schematic representation of truncated constructs of p62 for mapping the interaction domain with PBRM1. Q) IB analysis of WCL and GST‐pull‐down products derived from 293T cells transfected with V5‐PBRM1 and indicated constructs of GST‐p62 plasmids. R) Schematic representation of truncated constructs of p62 for mapping the interaction domain with PBRM1. S) IB analysis of WCL and GST‐pull‐down products derived from 293T cells transfected with V5‐PBRM1 and indicated constructs of GST‐p62 plasmids.
Cells were washed 3 times with ice‐cold phosphate‐buffered saline (PBS). The appropriate RIPA or IP buffer was added, which was mixed with protease and phosphatase inhibitors in advance. After centrifugation, the cell lysate supernatant was collected and checked using the BCA qualification system. The appropriate protein‐loading buffer was added to the protein lysates and denatured in a boiling water bath for 5 min. Each sample contained 30 µg protein, which was loaded onto 8% or 10% SDS‐PAGE gels and transferred to a polyvinylidene fluoride (PVDF) membrane. Then, the PVDF membranes were […] in fresh milk for 1 h at room temperature. Primary antibodies of the targets were added to the PVDF membranes and incubated overnight at 4 °C. The cells were rinsed 3 times with TBST buffer, followed by incubation with peroxidase‐conjugated antibodies at room temperature for 1 h. After washing, the PVDF membranes were analyzed and visualized using an ECL system (Bio‐Rad, Hercules, CA, USA).
Supplementary Figure 1. PBRM1 fluctuates during cell cycle progression. (A) IB analysis of WCL and anti-HA immunoprecipitates derived from 293T cells transfected with HA-CDC20 and Flag-PBRM1. (B) Schematic representation of truncated constructs of CDC20 for mapping the interaction domain with PBRM1. (C) IB analysis of WCL and GST-pull-down products derived from 293T cells transfected with Flag-PBRM1 and indicated constructs of GST-CDC20. Vec, vector. […]

Where [1] appears, read: 786-O and 769-P cells, NH4Cl 20 mM, chloroquine 50 µM, indicated hours.

Each structure is given as a SMILES string. Where a SMILES comes first, the peptide text is derived from it. The star is where a group is joined. Cbz = O=C(OCc1ccccc1)*

With `CCN(CC)CCCC(C)Nc1ccnc2cc(Cl)ccc12` (stereo not shown) [chloroquine], the “protein level of PBRM1” value under setting [1] was “upregulated”.

For the compound `CC(C)C[C@@H](C=O)NC(=O)[C@H](CC(C)C)NC(=O)[C@H](CC(C)C)NC(=O)OCc1ccccc1` [MG132] (Cbz-Leu-Leu-Leu-aldehyde), the “protein level of PBRM1” value (renca and 786-O cells, MG132 10 μM 12 hours, Figure S5O) is “enhance the protein level of PBRM1”.

As to `CC(=O)O[C@H]1C(=O)[C@@]2(C)[C@H]([C@H](OC(=O)c3ccccc3)[C@]3(O)C[C@H](OC(=O)[C@H](O)[C@@H](NC(=O)c4ccccc4)c4ccccc4)C(C)=C1C3(C)C)[C@]1(OC(C)=O)CO[C@@H]1C[C@@H]2O` [taxol, paclitaxel], where the note is “786-O and 769-P cells”, the CDC20 protein level result was “decreased” and the PBRM1 protein level result is given as “upregulated”. `Cl.N` [NH4Cl, ammonium chloride]: under setting [1], the “protein level of PBRM1” value is given as “increased”. In the case of `COC(=O)Nc1nc2ccc(C(=O)c3cccs3)cc2[nH]1` [nocodazole], for the setting “786-O and 769-P cells”, the CDC20 protein level result is reported as “decreased” and the PBRM1 protein level result was “upregulated”.
